# Data: BigSolDB 2.1
smiles,measurement,setting,value
CCOc1ccccc1C(N)=O,solubility (mole fraction),"in acetonitrile, 288.15 K",0.00524
same,solubility (mole fraction),"in acetonitrile, 293.15 K",0.0075
same,solubility (mole fraction),"in acetonitrile, 298.15 K",0.0101
same,solubility (mole fraction),"in acetonitrile, 303.15 K",0.0132
same,solubility (mole fraction),"in acetonitrile, 308.15 K",0.0176
same,solubility (mole fraction),"in acetonitrile, 313.15 K",0.0231
same,solubility (mole fraction),"in acetonitrile, 318.15 K",0.0302
same,solubility (mole fraction),"in acetonitrile, 323.15 K",0.0398
same,solubility (mole fraction),"in ethanol, 288.15 K",0.011
same,solubility (mole fraction),"in ethanol, 293.15 K",0.0137
same,solubility (mole fraction),"in ethanol, 298.15 K",0.0171
same,solubility (mole fraction),"in ethanol, 303.15 K",0.0211
same,solubility (mole fraction),"in ethanol, 308.15 K",0.0265
same,solubility (mole fraction),"in ethanol, 313.15 K",0.0327
same,solubility (mole fraction),"in ethanol, 318.15 K",0.0402
same,solubility (mole fraction),"in ethanol, 323.15 K",0.0486
same,solubility (mole fraction),"in ethyl acetate, 288.15 K",0.00336
same,solubility (mole fraction),"in ethyl acetate, 293.15 K",0.00459
same,solubility (mole fraction),"in ethyl acetate, 298.15 K",0.00639
same,solubility (mole fraction),"in ethyl acetate, 303.15 K",0.00835
same,solubility (mole fraction),"in ethyl acetate, 308.15 K",0.0112
same,solubility (mole fraction),"in ethyl acetate, 313.15 K",0.0147
same,solubility (mole fraction),"in ethyl acetate, 318.15 K",0.0196
same,solubility (mole fraction),"in ethyl acetate, 323.15 K",0.0251
same,solubility (mole fraction),"in isobutanol, 288.15 K",0.00816
same,solubility (mole fraction),"in isobutanol, 293.15 K",0.00984
same,solubility (mole fraction),"in isobutanol, 298.15 K",0.0126
same,solubility (mole fraction),"in isobutanol, 303.15 K",0.0162
same,solubility (mole fraction),"in isobutanol, 308.15 K",0.0208
same,solubility (mole fraction),"in isobutanol, 313.15 K",0.0273
same,solubility (mole fraction),"in isobutanol, 318.15 K",0.0354
same,solubility (mole fraction),"in isobutanol, 323.15 K",0.0454
same,solubility (mole fraction),"in methanol, 288.15 K",0.0154
same,solubility (mole fraction),"in methanol, 293.15 K",0.018
same,solubility (mole fraction),"in methanol, 298.15 K",0.0225
same,solubility (mole fraction),"in methanol, 303.15 K",0.027
same,solubility (mole fraction),"in methanol, 308.15 K",0.0328
same,solubility (mole fraction),"in methanol, 313.15 K",0.0402
same,solubility (mole fraction),"in methanol, 318.15 K",0.0492
same,solubility (mole fraction),"in methanol, 323.15 K",0.0597
same,solubility (mole fraction),"in n-propanol, 288.15 K",0.00832
same,solubility (mole fraction),"in n-propanol, 293.15 K",0.0113
same,solubility (mole fraction),"in n-propanol, 298.15 K",0.0142
same,solubility (mole fraction),"in n-propanol, 303.15 K",0.0179
same,solubility (mole fraction),"in n-propanol, 308.15 K",0.0227
same,solubility (mole fraction),"in n-propanol, 313.15 K",0.0301
same,solubility (mole fraction),"in n-propanol, 318.15 K",0.0389
same,solubility (mole fraction),"in n-propanol, 323.15 K",0.0502
